Consider 8 compounds from ChEMBL document CHEMBL1201862, “PubChem BioAssay data set” (2004).

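These data come from cells grown in 96-well plates and exposed to compound for 48 hours at five concentrations. GI50 is the concentration that inhibits growth by half.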 Active and inactive are the calls of the source. Rule as the data show it: active = GI50 up to about 1.1 µM and inactive = higher.

Test systems include UACC-62; SW-620; CAKI-1; HOP-62; RXF 393; HCT-116; SF-295; HCC 2998; U-251; A498; CCRF-CEM; SF-268; MDA-MB-231; NCI-H522; KM12; SK-MEL-2; M14; ACHN; OVCAR-8; SF-539.
Common to all, as to assay: NCI tumour cell line growth inhibition, 48 h

On to `N=C(N)c1ccc(/C=C/c2ccc(C(=N)N)cc2)cc1`, for which the GI50 is 97.9 µM (inactive) in the assay with UACC-62; 96.8 µM (inactive) in the assay with SW-620; 94.6 µM (inactive) in the assay with CAKI-1; 41.2 µM (inactive) with HOP-62; > 100 µM (inactive) with RXF 393; > 100 µM (inactive) in the assay on HCT-116. The GI50 is 34.4 µM (inactive) in the assay with SF-295; 90.8 µM (inactive) with HCC 2998; 33.5 µM (inactive) in the assay on U-251; 14.9 µM (inactive) with A498; > 100 µM (inactive) in the assay on CCRF-CEM; > 100 µM (inactive) in the assay on SF-268. In addition, the GI50 with MDA-MB-231 is > 100 µM (inactive); with NCI-H522, 63.2 µM (inactive); with KM12, > 100 µM (inactive); in the assay with SK-MEL-2, 27.1 µM (inactive); with M14, > 100 µM (inactive); in the assay on ACHN, > 100 µM (inactive). Further, the GI50 in the assay with OVCAR-8 was 85.7 µM (inactive).

With `C1=C2C3=[N+](CCCC3)CC2Cc2sccc21` (stereo not drawn), the GI50 in the assay with UACC-62 was > 100 µM (inactive); with SW-620 it was > 100 µM (inactive); in the assay on CAKI-1, > 100 µM (inactive); in the assay with HOP-62 it was 81.7 µM (inactive); in the assay on RXF 393 it was > 100 µM (inactive); in the assay on HCT-116, > 100 µM (inactive). In addition, the GI50 in the assay on SF-295 is 66.5 µM (inactive); in the assay with U-251, 29.4 µM (inactive); with A498 it was 47.6 µM (inactive); in the assay with CCRF-CEM, > 100 µM (inactive); in the assay on SF-268, > 100 µM (inactive); with MDA-MB-231, > 100 µM (inactive). The GI50 is 53 µM (inactive) in the assay with NCI-H522; 45.6 µM (inactive) in the assay with KM12; > 100 µM (inactive) with SK-MEL-2; > 100 µM (inactive) with M14; > 100 µM (inactive) in the assay with ACHN; > 100 µM (inactive) with OVCAR-8.

In the case of `O=C(O)c1cccc(/N=N/c2c(S(=O)(=O)O)ccc3c2C(=O)c2ccccc2C3=O)c1O`, the GI50 in the assay on UACC-62, in the assay on SF-539, in the assay on SW-620, in the assay with CAKI-1, in the assay with HOP-62 and in the assay on RXF 393 was > 100 µM (inactive) throughout. Further, the GI50 with HCT-116, in the assay with SF-295, in the assay with U-251, in the assay on A498, with CCRF-CEM and in the assay with SF-268 was > 100 µM (inactive) in each case. For the same compound, the GI50 in the assay on MDA-MB-231, in the assay with NCI-H522, in the assay with KM12, in the assay with SK-MEL-2, with M14 and in the assay on ACHN was > 100 µM (inactive) in each case. Further, the GI50 in the assay on OVCAR-8 is > 100 µM (inactive).

In the case of `Cc1cccc(-n2c(C)nc3ccc(NC4OC(CO)C(O)C(O)C4O)cc3c2=O)c1` (stereo not drawn), the GI50 in the assay on UACC-62, in the assay with SW-620, in the assay with CAKI-1, in the assay on HOP-62, in the assay with RXF 393 and in the assay on HCT-116 was > 100 µM (inactive) throughout. The GI50 in the assay with SF-295, in the assay with HCC 2998, with U-251, in the assay on A498, in the assay on SF-268 and in the assay with MDA-MB-231 was > 100 µM (inactive) each time. The GI50 was > 100 µM (inactive) with NCI-H522; > 100 µM (inactive) in the assay on KM12; 61 µM (inactive) in the assay on SK-MEL-2; > 100 µM (inactive) in the assay on ACHN; > 100 µM (inactive) in the assay with OVCAR-8.

For `COc1c(C)c(OC)c2c(c1O)[C@@H]1[C@@H]3Cc4c(OC)c(C)c(OC)c(O)c4[C@H](CNC(=O)c4ccc5ccccc5n4)N3[C@@H](C#N)[C@H](C2)N1C`, the GI50 in the assay on UACC-62 was 0.000411 µM (active); in the assay with SF-539, 0.0017 µM (active); with SW-620, 0.00033 µM (active); in the assay with CAKI-1, 0.00401 µM (active); in the assay on HOP-62, 0.00112 µM (active); in the assay with RXF 393, 0.00136 µM (active). Moreover, the GI50 is 0.000491 µM (active) with HCT-116; 0.0018 µM (active) in the assay with SF-295; 0.00014 µM (active) with HCC 2998; 0.000632 µM (active) in the assay with U-251; 0.000629 µM (active) in the assay on A498; 0.000883 µM (active) in the assay on SF-268. Further, the GI50 in the assay with MDA-MB-231 is 0.00159 µM (active); in the assay on NCI-H522, 0.000144 µM (active); in the assay with KM12 it was 0.000371 µM (active); with SK-MEL-2 it was 0.000296 µM (active); in the assay on M14 it was 0.000659 µM (active); in the assay with ACHN, 0.00199 µM (active). The GI50 with OVCAR-8 is 0.00181 µM (active).

Take `C/C(Cl)=N/OC(=O)Nc1ccc(S(N)(=O)=O)c(C)c1`: the GI50 was 15.7 µM (inactive) in the assay on UACC-62; 2.38 µM (inactive) in the assay with SW-620; 1.83 µM (inactive) with CAKI-1; 19.9 µM (inactive) in the assay with HOP-62; 16.9 µM (inactive) in the assay on RXF 393; 12 µM (inactive) with HCT-116. For the same compound, the GI50 is 21 µM (inactive) in the assay on SF-295; 18.4 µM (inactive) with HCC 2998; 18.5 µM (inactive) in the assay with U-251; 18.2 µM (inactive) in the assay with A498; 1.07 µM (active) in the assay on CCRF-CEM; 26.1 µM (inactive) in the assay with SF-268. Besides, the GI50 in the assay with MDA-MB-231 is 8.26 µM (inactive); in the assay with NCI-H522 it was 1.45 µM (inactive); with KM12, 18.6 µM (inactive); with SK-MEL-2, 18.6 µM (inactive); with M14, 9.14 µM (inactive); in the assay on ACHN, 2.15 µM (inactive). The GI50 in the assay with OVCAR-8 is 24.7 µM (inactive).

In the case of `O=S(=O)(O)c1cccc2c(/N=N/c3c(O)ccc4ccccc34)cccc12`, the GI50 with UACC-62, with SW-620, with CAKI-1, in the assay with HOP-62, with RXF 393 and in the assay with HCT-116 was > 100 µM (inactive) in each case. Also, the GI50 with SF-295, with U-251, with A498, in the assay on CCRF-CEM, with SF-268 and with MDA-MB-231 was > 100 µM (inactive) each time. Moreover, the GI50 in the assay on NCI-H522, with KM12, with SK-MEL-2, in the assay with M14, in the assay with ACHN and in the assay with OVCAR-8 was > 100 µM (inactive) each time.

`COc1nc(N)nc2c1ncn2C1CC(O)C(CO)O1` (stereo not drawn): the GI50 in the assay on UACC-62, in the assay on SF-539, in the assay with SW-620, with CAKI-1, in the assay with HOP-62 and in the assay on RXF 393 was > 100 µM (inactive) throughout. Besides, the GI50 with HCT-116, in the assay on SF-295, in the assay with U-251, with A498, with CCRF-CEM and in the assay with SF-268 was > 100 µM (inactive) each time. In addition, the GI50 in the assay with MDA-MB-231, with NCI-H522, in the assay on KM12, with SK-MEL-2, with M14 and in the assay on ACHN was > 100 µM (inactive) each time. In addition, in the assay with OVCAR-8, the GI50 was > 100 µM (inactive).
